The results in this text go back to ChEMBL document CHEMBL5331071, “Structure-activity relationship study of amidobenzimidazole derivatives as stimulator of interferon genes (STING) agonists” (Eur J Med Chem, 2023).

Series [1] is described as follows: Stability in rat plasma assessed as residual of initial concentration at 1 hr. To be noted: read-out: Stability. It counts as ADME, cell-free.
Series [2] deals with T1, Stimulator of interferon genes protein (Homo sapiens, UniProt Q86WV6). In words: Activation of STING signalling pathway in human PBMC cells assessed as increase in STING phosphorylation at 55.68 uM measured after 1 hr by Western blot analysis. Type of series: cell-based. A general note: Immunoblotting shows a protein as a band on a membrane.
The nature of series [3]: Metabolic stability in Sprague-Dawley rat plasma assessed as compound remaining measured after 1 hr by LC-MS/MS analysis. Type of series: ADME, cell-free. Conditions: read-out: Stability.
For series [4], the target named is T1, Stimulator of interferon genes protein. In words: Activation of STING signalling pathway in human THP-1 cells assessed as increase in TNF-alpha level incubated for 4 hrs by ELISA method. It counts as cell-based. To be noted: filed as agonist, dose 3.7-33.3 pg/ml. For orientation: In an ELISA, binding on a coated surface is turned into a signal by an enzyme label.

A short description of series [5]: Cytotoxicity against human THP1-Dual KO-STING cells assessed as inhibition of cell growth by MTS assay. Type of series: functional, cell-based. In general terms: Formazan colour is commonly taken as a measure of viable cells.
Series [6] addresses T1, Stimulator of interferon genes protein. Kind of series: Activation of STING signaling pathway in human PBMC cells assessed as increase in IL-6 mRNA level at 0.1 to 1 uM measured after 4 hrs by qRT-PCR analysis. Type of series: cell-based. To be noted: filed as agonist, dose 0.1-1 µM.
Series [7] has the same target. In words: Activation of STING signalling pathway in human PBMC cells assessed as increase in CXCL10 level incubated for 4 hrs by ELISA method. Type of series: cell-based.
Series [8] has the same target. In words: Activation of STING signaling pathway in human wild type THP-1 cells assessed as increase in CXCL10 mRNA level at 50 uM measured after 4 hrs by qRT-PCR analysis. It counts as cell-based. Conditions: filed as agonist.
Series [9] concerns THP1-Dual. Kind of series: Cytotoxicity against human THP1-Dual habouring STING assessed as inhibition of cell growth by MTS assay. It counts as functional, cell-based.
Series [10] concerns the target T1, Stimulator of interferon genes protein. Kind of series: Activation of STING signaling pathway in human PBMC cells assessed as increase in CXCL10 mRNA level at 0.1 to 1 uM measured after 4 hrs by qRT-PCR analysis. To be noted: filed as agonist, dose 0.1-1 µM. Type of series: cell-based.
Series [11] has the same target. In words: Activation of STING signalling pathway in human wild type THP-1 cells assessed as increase in TBK1 phosphorylation at 10 uM measured after 1 hr by Western blot analysis. To be noted: filed as agonist. Type of series: cell-based.
Series [12] has the same target. In words: Activation of STING signalling pathway in human wild type THP-1 cells assessed as increase in IFN-beta secretion incubated for 4 hrs by ELISA method. It counts as cell-based.
Series [13] shares this target. Kind of series: Agonist activity at STING in human […] KO-STING cells incubated for 20 hrs by Quanti-luc reagent based assay. It counts as cell-based, THP1-Dual KO-STING.
Series [14] shares this target. Kind of series: Activation of STING signaling pathway in human PBMC cells assessed as increase in IFN-beta mRNA level at 0.1 to 1 uM measured after 4 hrs by qRT-PCR analysis. Conditions: filed as agonist, dose 0.1-1 µM. Type of series: cell-based.
The target in series [15] is T2, Stimulator of interferon genes protein (Mus musculus) (UniProt Q3TBT3).
T2 sequence (whole entry): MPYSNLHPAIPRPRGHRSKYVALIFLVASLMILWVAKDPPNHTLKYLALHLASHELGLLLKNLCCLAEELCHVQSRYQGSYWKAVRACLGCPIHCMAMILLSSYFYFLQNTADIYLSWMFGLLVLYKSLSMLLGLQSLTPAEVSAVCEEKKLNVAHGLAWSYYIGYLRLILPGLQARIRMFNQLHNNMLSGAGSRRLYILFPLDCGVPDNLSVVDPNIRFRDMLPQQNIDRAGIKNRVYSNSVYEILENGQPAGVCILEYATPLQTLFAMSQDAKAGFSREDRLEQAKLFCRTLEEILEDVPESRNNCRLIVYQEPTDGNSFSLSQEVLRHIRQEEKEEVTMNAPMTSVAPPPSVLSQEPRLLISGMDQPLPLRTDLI
In words: Activation of STING in mouse RAW264.7 cells assessed as increase in IRF3 phosphorylation at 10 to 100 uM incubated for 4 hrs by Western blot analysis. Type of series: cell-based. To be noted: dose 10-100 µM.

Series [16] has as its target T1, Stimulator of interferon genes protein. Kind of series: Activation of STING signalling pathway in human PBMC cells assessed as increase in IL-6 level incubated for 4 hrs by ELISA method. It counts as cell-based.
Series [17] shares this target. In words: Agonist activity at STING in human THP1-Dual cells incubated for 20 hrs by Quanti-luc reagent based assay. It counts as cell-based.
The target is the same in series [18]. Kind of series: Activation of STING signaling pathway in human wild type THP-1 cells assessed as increase in IL-6 mRNA level at 50 uM measured after 4 hrs by qRT-PCR analysis. It counts as cell-based. To be noted: filed as agonist.
Series [19] shares this target. Kind of series: Activation of STING signalling pathway in human THP1-Dual cells assessed as increase in NF-kappaB-SEAP activation incubated for 24 hrs by QUANTI-Blue reagent based assay. Type of series: cell-based.
Series [20] has the same target. In words: Activation of STING signalling pathway in human PBMC cells assessed as increase in IRF3 phosphorylation at 10 uM measured after 1 hr by Western blot analysis. Conditions: filed as agonist. It counts as cell-based.
Series [21] deals with T2, Stimulator of interferon genes protein (Mus musculus). In words: Activation of STING in mouse RAW264.7 cells assessed as increase in TBK1 phosphorylation at 10 to 100 uM incubated for 4 hrs by Western blot analysis. It counts as cell-based. To be noted: dose 10-100 µM.
For series [22], the target named is T1, Stimulator of interferon genes protein. In words: Activation of STING signalling pathway in human wild type THP-1 cells assessed as increase in IRF3 phosphorylation at 10 uM measured after 1 hr by Western blot analysis. It counts as cell-based. Conditions: filed as agonist.
Series [23] has the same target. In words: Activation of STING signalling pathway in human PBMC cells assessed as increase in TBK1 phosphorylation at 10 uM measured after 1 hr by Western blot analysis. Type of series: cell-based. To be noted: filed as agonist.
The target is the same in series [24]. In words: Activation of STING signalling pathway in human wild type THP-1 cells assessed as increase in STING phosphorylation at 10 uM measured after 1 hr by Western blot analysis. It counts as cell-based. Conditions: filed as agonist.
For series [25], the target named is T2, Stimulator of interferon genes protein (Mus musculus). Kind of series: Activation of STING in mouse RAW264.7 cells assessed as increase in CXCL10 expression at 10 to 100 uM incubated for 24 hrs by qRT-PCR analysis. It counts as cell-based. To be noted: dose 10-100 µM.
Series [26] concerns the target T1, Stimulator of interferon genes protein. Kind of series: Activation of STING signaling pathway in human wild type THP-1 cells assessed as increase in IFN-beta mRNA level at 50 uM measured after 4 hrs by qRT-PCR analysis. Type of series: cell-based. To be noted: filed as agonist.
For series [27] the target is unchanged. Kind of series: Activation of STING signalling pathway in human PBMC cells assessed as increase in STING phosphorylation at 10 uM measured after 1 hr by Western blot analysis. It counts as cell-based. To be noted: filed as agonist.
Series [28] addresses T2, Stimulator of interferon genes protein (Mus musculus). In words: Activation of STING in mouse RAW264.7 cells assessed as increase in IFN-beta expression at 10 to 100 uM incubated for 24 hrs by qRT-PCR analysis. It counts as cell-based. Conditions: dose 10-100 µM.
Series [29] deals with T1, Stimulator of interferon genes protein. In words: Activation of STING signalling pathway in human THP1-Dual cells assessed as increase in IRF-luciferase activation incubated for 24 hrs by QUANTI-luc assay. Type of series: cell-based.
Series [30] has the same target. In words: Activation of STING signalling pathway in human THP-1 cells assessed as increase in IL-6 level incubated for 4 hrs by ELISA method. Type of series: cell-based. Conditions: filed as agonist, dose 3.7-33.3 pg/ml.
Series [31] shares this target. In words: Activation of STING signalling pathway in human PBMC cells assessed as increase in IFN-beta level incubated for 4 hrs by ELISA method. It counts as cell-based.
Series [32] can be described thus: Metabolic stability in Sprague-Dawley rat plasma assessed as compound remaining measured after 2 hrs by LC-MS/MS analysis. It counts as ADME, cell-free. Conditions: read-out: Stability.
Series [33] has as its target T3, Stimulator of interferon genes protein (Mus musculus, UniProt Q3TBT3).
T3 sequence (Q3TBT3 whole entry): T2 sequence (whole entry)
Kind of series: Agonist activity at STING in mouse RAW-Lucia ISG cells by luciferase gene reporter assay. Type of series: cell-based.

In series [34] the target is T1, Stimulator of interferon genes protein. Kind of series: Activation of STING signalling pathway in human THP-1 cells assessed as increase in CXCL10 level incubated for 4 hrs by ELISA method. It counts as cell-based. To be noted: filed as agonist, dose 0.046-0.421 pg/ml.
For series [35], the target named is T2, Stimulator of interferon genes protein (Mus musculus). Kind of series: Activation of STING in mouse RAW264.7 cells assessed as increase in IL-6 expression at 10 to 100 uM incubated for 24 hrs by qRT-PCR analysis. It counts as cell-based. To be noted: dose 10-100 µM.

Active and inactive are the calls of the source. No cut-off for these calls is given here.

T1 sequence (Q86WV6 whole entry): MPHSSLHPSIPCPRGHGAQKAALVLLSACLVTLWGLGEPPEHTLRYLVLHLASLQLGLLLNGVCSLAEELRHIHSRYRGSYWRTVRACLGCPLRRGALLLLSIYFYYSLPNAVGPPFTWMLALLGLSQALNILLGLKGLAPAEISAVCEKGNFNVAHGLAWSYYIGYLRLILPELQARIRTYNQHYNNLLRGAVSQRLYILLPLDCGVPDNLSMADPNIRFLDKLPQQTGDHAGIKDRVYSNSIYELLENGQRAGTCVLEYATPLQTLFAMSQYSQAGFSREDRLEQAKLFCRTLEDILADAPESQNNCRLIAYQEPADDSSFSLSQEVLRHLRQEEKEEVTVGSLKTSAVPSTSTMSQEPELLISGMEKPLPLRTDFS

With `CCn1nc(C)cc1C(=O)Nc1nc2cc(C(N)=O)cc(OCCCOC)c2n1CCCNC(=O)OCc1ccccc1`, the remaining at 1 h in series [1] amounted to 36.4%.
What is called IC50 is the concentration needed to halve the response being measured. For orientation: EC50 means the concentration that produces a half-maximal response. As to `CCn1nc(C)cc1C(=O)Nc1nc2cc(C(N)=O)cc(OC)c2n1NCCCC(=O)NCc1ccc(F)cc1`, the result in series [2], in series [15], in [21], in series [25], in [28] and in series [35] was inactive. In addition, in series [3], the remaining at 1 h stood at 78.7%. The Activity result in [4] is “Dose-Dependent Effect”; in [7] (filed as agonist, dose 0.046-0.412 µM) it was “Dose-Dependent Effect”; in series [12] (filed as agonist), “Dose-Dependent Effect”; in series [16] (filed as agonist, dose 0.006-0.16 µM), “Dose-Dependent Effect”; in [19] (filed as agonist), “Dose-Dependent Effect”; in [29] (filed as agonist), “Dose-Dependent Effect”. For the same molecule, the Activity result is “Dose-Dependent Effect” in series [30]; “Dose-Dependent Effect” in [31] (filed as agonist, dose 0.137-1.235 µM); “Dose-Dependent Effect” in [34]. Further, the IC50 in series [5] and in [9] was > 100 µM throughout. In addition, the outcome in [6], in [8], in series [10], in series [11], in series [14] and in series [18] was Active. The outcome in series [20], in [22], in [23], in [24], in series [26] and in series [27] was Active. Further, the EC50 in series [7] is 0.12 µM; in series [12], 4.74 µM; in series [13] it was > 100 µM; in [16], 0.03 µM; in series [17], 1.58 µM; in [19], 5.5 µM. Further, the results for the EC50 in [29], in series [31] and in [33] were 3.2 µM, 0.27 µM and > 100 µM, respectively. Moreover, in series [32], the remaining at 2 h amounted to 60.5%.
For `CCn1nc(C)cc1C(=O)Nc1nc2cc(C(N)=O)cc(OC)c2n1NCCCC(=O)NCc1ccc(F)cc1F`, the IC50 in series [5] and in series [9] was > 100 µM each time. For the same molecule, the EC50 in series [13] was > 100 µM; in series [17] it was 3.57 µM.
